biological target: T1, pregnane X receptor (PXR) (Homo sapiens, UniProt O75469); test: mammalian two-hybrid PXR-LBD assembly assay in HepG2; NCOR2 release, NCOA1 recruitment; SPA70-blocked CYP3A4 reporter; assay type: cell-based; details: hepg2, 10 µM
T1 construct: gene NR1I2; PXR-LBD (132-188) + (189-434) assembly; LBD (108-434) in co-factor assays
T1 sequence (O75469 108-434): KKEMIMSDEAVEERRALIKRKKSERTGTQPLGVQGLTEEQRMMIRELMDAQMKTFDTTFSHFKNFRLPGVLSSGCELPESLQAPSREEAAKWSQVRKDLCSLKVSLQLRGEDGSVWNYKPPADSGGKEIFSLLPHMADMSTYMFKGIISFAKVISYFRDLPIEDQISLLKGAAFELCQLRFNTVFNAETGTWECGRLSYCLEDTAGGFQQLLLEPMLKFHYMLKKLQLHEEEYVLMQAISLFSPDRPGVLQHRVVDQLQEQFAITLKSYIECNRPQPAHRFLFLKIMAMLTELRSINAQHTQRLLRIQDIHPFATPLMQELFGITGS

Row | Measured Activity ^1 | Substance
1 | 115.84 % of rifampicin activity at 10 µM | MolPort-000-431-927 [compound 42]
2 | 84.18 % of rifampicin activity at 10 µM | MolPort-002-216-386 [compound 53]
3 | 136.87 % of rifampicin activity at 10 µM | MolPort-006-630-224 [compound 25]

biological target: T2, pregnane X receptor (PXR) (Homo sapiens, UniProt O75469); test: mammalian two-hybrid PXR-LBD assembly assay in HepG2; assay type: cell-based; details: hepg2, 10 µM
T2 construct: gene NR1I2; PXR-LBD (132-188) + (189-434)
T2 sequence (O75469 132-188): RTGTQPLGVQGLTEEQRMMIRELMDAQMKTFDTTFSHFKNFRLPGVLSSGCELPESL
T2 sequence (O75469 189-434): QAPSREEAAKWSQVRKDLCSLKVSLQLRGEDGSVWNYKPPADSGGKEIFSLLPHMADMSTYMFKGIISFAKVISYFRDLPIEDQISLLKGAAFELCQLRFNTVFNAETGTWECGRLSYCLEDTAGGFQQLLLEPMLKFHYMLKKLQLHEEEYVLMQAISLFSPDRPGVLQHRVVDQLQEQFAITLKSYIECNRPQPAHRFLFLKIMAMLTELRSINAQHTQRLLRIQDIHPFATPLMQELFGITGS

Row | Measured Activity ^1 | Substance
4 | 91.00 % of rifampicin activity at 10 µM | MolPort-000-431-925 [compound 22]
5 | 71.67 % of rifampicin activity at 10 µM | MolPort-000-431-934 [compound 43]
6 | 100.91 % of rifampicin activity at 10 µM | MolPort-006-629-818 [compound 34]
7 | 80.37 % of rifampicin activity at 10 µM | MolPort-006-630-110 [compound 39]

Reference: article PMC9029776, “Development and Experimental Validation of Regularized Machine Learning Models Detecting New, Structurally Distinct Activators of PXR” (Cells, 2022)
